Target: T1, TcCaNA2 (Trypanosoma cruzi, UniProt G9B7N4)
T1 construct: gene CaNA2; tag cleavage not mentioned; primers from CL Brener XM_816360.1
Test: colorimetric phosphatase assay, absorbance at […] nm
Assay type: biochemical
Conditions: 80 mM p-NPP, 1 µg enzyme, 15 min at 30 °C; 1 mM MnCl2 or NiCl2 (also CaCl2, MgCl2)

T1 sequence (G9B7N4 entry or part of it): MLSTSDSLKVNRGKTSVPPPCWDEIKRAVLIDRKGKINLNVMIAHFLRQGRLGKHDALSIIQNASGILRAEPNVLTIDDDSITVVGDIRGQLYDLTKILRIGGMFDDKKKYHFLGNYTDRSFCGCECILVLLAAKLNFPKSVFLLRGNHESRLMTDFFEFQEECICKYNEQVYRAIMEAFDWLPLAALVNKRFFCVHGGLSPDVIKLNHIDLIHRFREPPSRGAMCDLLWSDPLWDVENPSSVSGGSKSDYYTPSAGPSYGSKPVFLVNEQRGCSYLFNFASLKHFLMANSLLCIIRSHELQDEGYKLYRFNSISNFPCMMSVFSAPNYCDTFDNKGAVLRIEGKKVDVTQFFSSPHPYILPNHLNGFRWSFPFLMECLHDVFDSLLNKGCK

O=[N+]([O-])c1ccc(OP(=O)(O)O)cc1 [p-nitrophenyl phosphate]
colorimetric phosphatase assay, absorbance at 405 nm: The recombinant protein TcCaNA2 showed enzymatic activity using p-NPP as substrate

— publication PMC3907409, “A Cytoplasmic New Catalytic Subunit of Calcineurin in Trypanosoma cruzi and Its Molecular and Functional Characterization” (PLoS Neglected Tropical Diseases, 2014)
